Experimental data as given in patent publication US20180161449A1 (OCULIS EHF, priority 2015, published 2018).

Columns and labels:
[1] = type: physicochemical
Protocol: An excess amount of drug was added to aqueous solutions containing up to 20% (w/v) cyclodextrin. The solutions were sonicated at 40-50° C. for 45-60 minutes in sealed glass vials, and then allowed to cool to room temperature (22-23° C.). Small amount of solid drug was then added to each vial, the vial resealed and allowed to equilibrate under constant agitation and protected from light for 7 days at room temperature. When the solutions had reached equilibrium, they were filtered through a 0.45 μm membrane filter and analyzed by high pressure liquid chromatography. […] The complexation efficiency (CE) was determined from the slope of phase-solubility diagrams (plots of total solubility of the drug versus total CD concentration in mol/l) where S0 is the intrinsic solubility of the drug:
The mobile phase consisted of acetonitrile, methanol and water (60:20:20), the flow rate was 1 ml/min, the column oven temperature was 80° C. and the detection wavelength was 205 nm.

[2] = pure water at room temperature; cited from earlier work

Compound | CE (complexation efficiency) [1] | Solubility in the presence of 5% (w/v) cyclodextrin [1] | Solubility in the presence of 15% (w/v) cyclodextrin [1] | Solubility of the cyclodextrin in pure water [2]
2-Hydroxypropyl-α-cyclodextrin | 0.031 | 0.084 mg/mL | 0.46 mg/mL | 
2-Hydroxypropyl-γ-cyclodextrin | 0.0011 |  |  | 
OC[C@H]1O[C@@H]2O[C@H]3[C@H](O)[C@@H](O)[C@@H](O[C@H]4[C@H](O)[C@@H](O)[C@@H](O[C@H]5[C@H](O)[C@@H](O)[C@@H](O[C@H]6[C@H](O)[C@@H](O)[C@@H](O[C@H]7[C@H](O)[C@@H](O)[C@@H](O[C@H]1[C@H](O)[C@H]2O)O[C@@H]7CO)O[C@@H]6CO)O[C@@H]5CO)O[C@@H]4CO)O[C@@H]3CO [α-Cyclodextrin] | 0.54 |  | 4.2 mg/mL | 
OC[C@H]1O[C@@H]2O[C@H]3[C@H](O)[C@@H](O)[C@@H](O[C@H]4[C@H](O)[C@@H](O)[C@@H](O[C@H]5[C@H](O)[C@@H](O)[C@@H](O[C@H]6[C@H](O)[C@@H](O)[C@@H](O[C@H]7[C@H](O)[C@@H](O)[C@@H](O[C@H]8[C@H](O)[C@@H](O)[C@@H](O[C@H]1[C@H](O)[C@H]2O)O[C@@H]8CO)O[C@@H]7CO)O[C@@H]6CO)O[C@@H]5CO)O[C@@H]4CO)O[C@@H]3CO [β-Cyclodextrin] | 0.030 |  |  | 2 % (w/v)
OC[C@H]1O[C@@H]2O[C@H]3[C@H](O)[C@@H](O)[C@@H](O[C@H]4[C@H](O)[C@@H](O)[C@@H](O[C@H]5[C@H](O)[C@@H](O)[C@@H](O[C@H]6[C@H](O)[C@@H](O)[C@@H](O[C@H]7[C@H](O)[C@@H](O)[C@@H](O[C@H]8[C@H](O)[C@@H](O)[C@@H](O[C@H]9[C@H](O)[C@@H](O)[C@@H](O[C@H]1[C@H](O)[C@H]2O)O[C@@H]9CO)O[C@@H]8CO)O[C@@H]7CO)O[C@@H]6CO)O[C@@H]5CO)O[C@@H]4CO)O[C@@H]3CO [γ-Cyclodextrin] | 0.0049 |  |  | 
Randomly methylated β-cyclodextrin | 0.053 | 0.13 mg/mL |  | 
